Earlier results in patent publication US9974767B2, “Statins in the treatment of muscular dystrophies and myopathies” (University of Washington, priority 2014, dated 2018).

Conditions: food intake; cited from earlier work

Row | SMILES | absorption when consumed with food
1 | COCc1c(C(C)C)nc(C(C)C)c(/C=C/[C@@H](O)C[C@@H](O)CC(=O)O)c1-c1ccc(F)cc1 [cerivastatin] | not affected
2 | CC(C)n1c(/C=C/C(O)CC(O)CC(=O)O)c(-c2ccc(F)cc2)c2ccccc21 (centres unmarked) [fluvastatin] | reduced absorption
3 | CC[C@H](C)C(=O)O[C@H]1C[C@@H](C)C=C2C=C[C@H](C)[C@H](CC[C@@H]3C[C@@H](O)CC(=O)O3)[C@H]21 [lovastatin] | more efficiently absorbed
4 | CC[C@H](C)C(=O)O[C@H]1C[C@H](O)C=C2C=C[C@H](C)[C@H](CC[C@@H](O)C[C@@H](O)CC(=O)O)[C@H]21 [pravastatin] | reduced absorption
5 | CC(C)c1nc(N(C)S(C)(=O)=O)nc(-c2ccc(F)cc2)c1/C=C/[C@@H](O)C[C@@H](O)CC(=O)O [rosuvastatin] | not affected
